Each block holds one molecule with its values, some of them ahead of it.
Legend:
[1] = in vivo animal feeding study for caloric availability; parameters: species or system Sprague-Dawley rats; details: rats, diet of 50% fort and 21% test compound, 14 days; from weight gain and corn oil base line data
Description: This example illustrates how the novel fat mimetics of this invention are screened for caloric availability by a carefully controlled in vivo animal feeding study.
An experimental relationship between total calories ingested and animal body weight gain is established by monitoring the body weight gain associated with consumption of a nutritionally balanced diet containing varying concentrations of a reference substance such as corn oil which has a known caloric availabilty. Correlations between total calories ingested and body weight gain are excellent (r=0.99).
Caloric availability of an unknown substance is evaluated by substituting a specific weight of the unknown substance for the reference substance and observing the body weight gain. The gain in body weight is equated to a total number of calories using the correlation previously established for the reference data. The estimated number of calories ingested are divided by the weight of unknown substance to give the apparent calories per gram for the unknown substance. Generally speaking, in these bioavailability studies, the degree of perianal pelt soiling correlates with reduced bioavailability.
The test animals are six-week-old male Sprague-Dawley rats obtained from the Portage, Michigan facility of the Charles River Laboratories, Inc. After acclimation for 15 days, the test duration is I4 days. […]

[2] = test system: pancreatic lipase; details: cited from earlier work
[3] = rats fed ad libitum; cited from earlier work
[4] = rat, in vivo; cited from earlier work

caloric availability upon being metabolized [1]: about 3.3 kcal/gram
Molecule: CCCCCCCC/C=C\CCCCCCCC(=O)OCC(C)(COC(=O)CCCCCCC/C=C\CCCCCCCC)COC(=O)CCCCCCC/C=C\CCCCCCCC [Example 1, 1,1,1-Tris hydroxymethylethane trioleate]

Molecule: CCCCCCCC(=O)OCC(COC(=O)CCCCCCC)(COC(=O)CCCCCCC)COC(=O)CCCCCCC [pentaerythritol tetracaprylate]
hydrolysis by the enzyme pancreatic lipase [2]: not attacked, hydrolyzed
food consumption versus control animals on a normal diet [3]: consumed more than control animals

Molecule: corn oil
caloric availability of reference [4]: 9.0 calories/gram

Reference: patent US4992292A, “Tris-hydroxymethyl alkane dicarboxylate extended esters as low calorie fat mimetics” (Nabisco Brands, Inc., priority 1990, dated 1991)
